Assay results as given in article PMC2819846 (Mutation research, 2008).
Read-outs that look alike come from different tables or passages of the source.

Columns and labels:
[1] = system: Salmonella; details: cited from earlier work
[2] = system: DNA from Salmonella TA100; assay: Abasic sites by aldehydic-site assay in DNA of treated TA100; assay type: cell-based; details: DMSO 5.9 ± 0.33
[3] = system: Salmonella TA104; assay: Salmonella plate-incorporation mutagenicity assay, strain TA104, with S9 mix; assay type: cell-based; details: for Mutagenic potency, Revertants/µg ± S.E., TA104 / Mutagenicity call TA104: plate-incorporation, +S9
[4] = system: strain TA100; assay type: cell-based, Salmonella; details: TA100 liquid-suspension; for Rev/10^6 survivors: DMSO 0.8; for Percent survival: DMSO 100
[5] = system: Salmonella TA100; assay: Salmonella plate-incorporation mutagenicity assay, strain TA100; assay type: cell-based; details: for Mutagenic potency, Revertants/µg ± S.E., TA100 / Mutagenicity call TA100: plate-incorporation, +S9
[6] = system: Salmonella TA98; assay: Salmonella plate-incorporation mutagenicity assay, strain TA98, with S9 mix; assay type: cell-based
[7] = system: DNA from Salmonella TA100; assay: Stable DNA adducts by 32P-postlabeling in DNA of treated TA100; assay type: cell-based; details: DMSO 0.024 ± 0.000
[8] = TA104 +S9, Test 3, 0.5 µg/plate, zero-dose 402/395/336
[9] = TA104 +S9, Test 3, 1 µg/plate, zero-dose 402/395/336
[10] = TA104 +S9, Test 3, 5 µg/plate, zero-dose 402/395/336
[11] = TA100 +S9, Test 1, 2 µg/plate, zero-dose 99/110/110
[12] = TA100 +S9, Test 1, 5 µg/plate, zero-dose 99/110/110
[13] = TA100 +S9, Test 1, 10 µg/plate, zero-dose 99/110/110
[14] = TA100 +S9, Test 1, 20 µg/plate, zero-dose 99/110/110
[15] = TA100 +S9, Test 1, 40 µg/plate, zero-dose 99/110/110
[16] = TA100 +S9, Test 1, 80 µg/plate, zero-dose 99/110/110
[17] = TA100 +S9, Test 2, 0.5 µg/plate, zero-dose 84/78/80
[18] = TA100 +S9, Test 2, 1 µg/plate, zero-dose 84/78/80
[19] = TA100 +S9, Test 2, 5 µg/plate, zero-dose 84/78/80
[20] = TA100 +S9, Test 3, 0.5 µg/plate, zero-dose 127/118/125
[21] = TA100 +S9, Test 3, 1 µg/plate, zero-dose 127/118/125
[22] = TA100 +S9, Test 3, 5 µg/plate, zero-dose 127/118/125
[23] = TA98 +S9, Test 1, 2 µg/plate, zero-dose 33/40/39
[24] = TA98 +S9, Test 1, 5 µg/plate, zero-dose 33/40/39
[25] = TA98 +S9, Test 1, 10 µg/plate, zero-dose 33/40/39
[26] = TA98 +S9, Test 1, 20 µg/plate, zero-dose 33/40/39
[27] = TA98 +S9, Test 1, 40 µg/plate, zero-dose 33/40/39
[28] = TA98 +S9, Test 1, 80 µg/plate, zero-dose 33/40/39
[29] = TA98 +S9, Test 2, 5 µg/plate, zero-dose 43/41/30
[30] = TA98 +S9, Test 3, 5 µg/plate, zero-dose 49/50/50

c1ccc2c(c1)ccc1ccc3ccccc3c12 [B[c]P, Benzo[c]phenanthrene]
Mutagenicity in Salmonella (early studies) [1]: mutagenic | Abasic sites/10^5 nucleotides ± S.E ([2]; TA100, 20 µg/ml): 3.3 ± 0.12 sites/10^5 nucleotides | Rev/plate ([3]; TA104 +S9, Test 2, 0.5 µg/plate, zero-dose 276/260/270): 432/407 | Rev/plate ([3]; TA104 +S9, Test 2, 1 µg/plate, zero-dose 276/260/270): 504/506 | Rev/plate ([3]; TA104 +S9, Test 2, 2 µg/plate, zero-dose 276/260/270): 570/609 | Rev/plate ([3]; TA104 +S9, Test 2, 5 µg/plate, zero-dose 276/260/270): 753/894 | Rev/plate [3, 8]: 523/486 | Rev/plate [3, 9]: 636/581 | Rev/plate ([3]; TA104 +S9, Test 3, 2 µg/plate, zero-dose 402/395/336): 588/660 | Rev/plate [3, 10]: 850/824 | Mutagenic potency, Revertants/µg ± S.E., TA104 [3]: 241 ± 25 rev/µg | Mutagenicity call TA104 [3]: (+) (Called mutagenic (+) based on showing reproducible, dose-related increases in rev/plate that reached or exceeded 2-fold relative to zero-dose controls) | Fold increase in mutant frequency relative to DMSO-treated cells ([4]; 20 µg/ml): 3.9 fold | Rev/10^6 survivors ([4]; 20 µg/ml): 3.1 Rev/10^6 survivors | Percent survival ([4]; 20 µg/ml): 71% | Rev/plate [5, 11]: 251 rev/plate | Rev/plate [5, 12]: 388 rev/plate | Rev/plate [5, 13]: 467 rev/plate | Rev/plate [5, 14]: 503 rev/plate | Rev/plate [5, 15]: 494 rev/plate | Rev/plate [5, 16]: 354 rev/plate | Rev/plate [5, 17]: 97/85 | Rev/plate [5, 18]: 114/78 | Rev/plate ([5]; TA100 +S9, Test 2, 2 µg/plate, zero-dose 84/78/80): 117/143 | Rev/plate [5, 19]: 300/204 | Rev/plate [5, 20]: 180/190 | Rev/plate [5, 21]: 250/217 | Rev/plate ([5]; TA100 +S9, Test 3, 2 µg/plate, zero-dose 127/118/125): 300/303 | Rev/plate [5, 22]: 510/499 | Mutagenic potency, Revertants/µg ± S.E., TA100 [5]: 56.4 ± 12.1 rev/µg | Mutagenicity call TA100 [5]: (+) (Called mutagenic (+) based on showing reproducible, dose-related increases in rev/plate that reached or exceeded 2-fold relative to zero-dose controls) | Rev/plate [6, 23]: 37 rev/plate | Rev/plate [6, 24]: 43 rev/plate | Rev/plate [6, 25]: 57 rev/plate | Rev/plate [6, 26]: 60 rev/plate | Rev/plate [6, 27]: 50 rev/plate | Rev/plate [6, 28]: 35 rev/plate | Rev/plate ([6]; TA98 +S9, Test 2, 0.5 µg/plate, zero-dose 43/41/30): 44/36 | Rev/plate ([6]; TA98 +S9, Test 2, 1 µg/plate, zero-dose 43/41/30): 41/35 | Rev/plate ([6]; TA98 +S9, Test 2, 2 µg/plate, zero-dose 43/41/30): 38/37 | Rev/plate [6, 29]: 56/50 | Rev/plate ([6]; TA98 +S9, Test 3, 0.5 µg/plate, zero-dose 49/50/50): 49/36 | Rev/plate ([6]; TA98 +S9, Test 3, 1 µg/plate, zero-dose 49/50/50): 52/54 | Rev/plate ([6]; TA98 +S9, Test 3, 2 µg/plate, zero-dose 49/50/50): 60/50 | Rev/plate [6, 30]: 87/61 | Mutagenic potency, Revertants/µg ± S.E., TA98 ([6]; plate-incorporation, +S9): 1.2 ± 1.3 rev/µg | Stable adducts/10^8 nucleotides ± S.E ([7]; TA100, 20 µg/ml): 1.600 ± 0.040 adducts/10^8 nucleotides

O[C@@H]1C=Cc2c(ccc3ccc4ccccc4c23)[C@H]1O (racemic) [B[c]P 3,4-diol, (± )-trans-3,4-Dihydrobenzo[c]phenanthrene 3,4-diol]
Mutagenicity in Salmonella (early studies) [1]: mutagenic | Abasic sites/10^5 nucleotides ± S.E ([2]; TA100, 2 µg/ml): 4.2 ± 0.16 sites/10^5 nucleotides | Abasic sites/10^5 nucleotides ± S.E ([2]; TA100, 5 µg/ml): 5.3 ± 0.27 sites/10^5 nucleotides | Rev/plate ([3]; TA104 +S9, Test 1, 0.5 µg/plate, zero-dose 379/400/370): 770/707 | Rev/plate ([3]; TA104 +S9, Test 1, 1 µg/plate, zero-dose 379/400/370): 1007/1137 | Rev/plate ([3]; TA104 +S9, Test 1, 2.5 µg/plate, zero-dose 379/400/370): 1618/1616 | Rev/plate ([3]; TA104 +S9, Test 1, 5 µg/plate, zero-dose 379/400/370): 1925/2036 | Rev/plate [3, 8]: 663/615 | Rev/plate [3, 9]: 923/920 | Rev/plate ([3]; TA104 +S9, Test 3, 2.5 µg/plate, zero-dose 402/395/336): 1368/1509 | Rev/plate [3, 10]: 1781/1775 | Rev/plate ([3]; TA104 +S9, Test 4, 0.5 µg/plate, zero-dose 482/455/462): 655/635 | Rev/plate ([3]; TA104 +S9, Test 4, 1 µg/plate, zero-dose 482/455/462): 913/888 | Rev/plate ([3]; TA104 +S9, Test 4, 2.5 µg/plate, zero-dose 482/455/462): 1375/1312 | Rev/plate ([3]; TA104 +S9, Test 4, 5 µg/plate, zero-dose 482/455/462): 1807/1818 | Mutagenic potency, Revertants/µg ± S.E., TA104 [3]: 552 ± 62 rev/µg | Mutagenicity call TA104 [3]: (+) (Called mutagenic (+) based on showing reproducible, dose-related increases in rev/plate that reached or exceeded 2-fold relative to zero-dose controls) | Percent survival ([4]; 2 µg/ml): 56% | Fold increase in mutant frequency relative to DMSO-treated cells ([4]; 5 µg/ml): 23.4 fold | Rev/10^6 survivors ([4]; 5 µg/ml): 18.7 Rev/10^6 survivors | Percent survival ([4]; 5 µg/ml): 20% | Rev/plate [5, 11]: 694 rev/plate | Rev/plate [5, 12]: 1002 rev/plate | Rev/plate [5, 13]: 1067 rev/plate | Rev/plate [5, 14]: 942 rev/plate | Rev/plate [5, 15]: 381 rev/plate | Rev/plate [5, 16]: 100 rev/plate | Rev/plate [5, 17]: 151/162 | Rev/plate [5, 18]: 244/241 | Rev/plate ([5]; TA100 +S9, Test 2, 2.5 µg/plate, zero-dose 84/78/80): 533/604 | Rev/plate [5, 19]: 598/153 | Rev/plate [5, 20]: 335/357 | Rev/plate [5, 21]: 474/494 | Rev/plate ([5]; TA100 +S9, Test 3, 2.5 µg/plate, zero-dose 127/118/125): 848/945 | Rev/plate [5, 22]: 1216/1218 | Rev/plate ([5]; TA100 +S9, Test 4, 0.5 µg/plate, zero-dose 112/140/115): 328/304 | Rev/plate ([5]; TA100 +S9, Test 4, 1 µg/plate, zero-dose 112/140/115): 613/577 | Rev/plate ([5]; TA100 +S9, Test 4, 2.5 µg/plate, zero-dose 112/140/115): 938/941 | Rev/plate ([5]; TA100 +S9, Test 4, 5 µg/plate, zero-dose 112/140/115): 1117/1140 | Mutagenic potency, Revertants/µg ± S.E., TA100 [5]: 268 ± 46 rev/µg | Mutagenicity call TA100 [5]: (+) (Called mutagenic (+) based on showing reproducible, dose-related increases in rev/plate that reached or exceeded 2-fold relative to zero-dose controls) | Rev/plate [6, 23]: 47 rev/plate | Rev/plate [6, 24]: 100 rev/plate | Rev/plate [6, 25]: 120 rev/plate | Rev/plate [6, 26]: 226 rev/plate | Rev/plate [6, 27]: 303 rev/plate | Rev/plate [6, 28]: 417 rev/plate | Rev/plate [6, 29]: 120/112 | Rev/plate ([6]; TA98 +S9, Test 2, 10 µg/plate, zero-dose 43/41/30): 180/199 | Rev/plate ([6]; TA98 +S9, Test 2, 20 µg/plate, zero-dose 43/41/30): 310/260 | Rev/plate ([6]; TA98 +S9, Test 2, 40 µg/plate, zero-dose 43/41/30): 460/414 | Rev/plate ([6]; TA98 +S9, Test 2, 80 µg/plate, zero-dose 43/41/30): 492/423 | Rev/plate [6, 30]: 145/173 | Rev/plate ([6]; TA98 +S9, Test 3, 10 µg/plate, zero-dose 49/50/50): 238/242 | Rev/plate ([6]; TA98 +S9, Test 3, 20 µg/plate, zero-dose 49/50/50): 350/328 | Rev/plate ([6]; TA98 +S9, Test 3, 40 µg/plate, zero-dose 49/50/50): 458/504 | Rev/plate ([6]; TA98 +S9, Test 3, 80 µg/plate, zero-dose 49/50/50): 509/597 | Mutagenic potency, Revertants/µg ± S.E., TA98 ([6]; plate-incorporation, +S9): 11.1 ± 3.0 rev/µg | Mutagenicity call TA98 ([6]; plate-incorporation, +S9): (+) (Called mutagenic (+) based on showing reproducible, dose-related increases in rev/plate that reached or exceeded 2-fold relative to zero-dose controls) | Stable adducts/10^8 nucleotides ± S.E ([7]; TA100, 2 µg/ml): 5.900 ± 0.230 adducts/10^8 nucleotides | Stable adducts/10^8 nucleotides ± S.E ([7]; TA100, 5 µg/ml): 4.500 ± 0.034 adducts/10^8 nucleotides
